In paper PMC12703733, “Probing Guanidino Pendant or Bridged Groups in Cyclic Antimicrobial Peptides Derived from Temporin L: A Strategy to Improve Efficacy against Gram-Negative Bacteria” (Journal of Medicinal Chemistry, 2025):
Like-named read-outs stand apart in the source and are kept apart here. Bridge positions count the residues as written; N and C are the ends. Square brackets hold non-standard residues; d marks the D form. Peptide text beside a SMILES is read from it. * marks the point of attachment. Propanoyl(3-guanidino) = N=C(N)NCCC(=O)*; X1 = N=C(N)N[C@@H](Cc1ccccc1)C(=O)*

Assays:
E. coli ATCC 25922 = assay: microbe, parasite or virus in culture; assay type: cell-based
Method: (§1) Bacterial strains used in this study were the Gram-positive S. aureus ATCC 25923, S. epidermidis ATCC 12228, B. megaterium BM11, S. [NT] 27591, E. faecalis ATCC 29212 and the Gram-negative E. coli ATCC 25922, P. aeruginosa ATCC 27853, A. baumannii ATCC 19606, E. coli D21 and P. aeruginosa PAO1. […] Bacterial cells in the mid log phase were diluted in Muller Hinton (MH) at a concentration of 2 × 10^6 cell/mL. […] Ciprofloxacin was used as antibiotic control. The plate was then incubated at 37 °C. MICs were obtained from three identical readings of four independent experiments.

A. baumannii ATCC 19606 = assay: microbe, parasite or virus in culture; assay type: cell-based
Method: as §1

S. aureus ATCC 25923 = assay: microbe, parasite or virus in culture; assay type: cell-based
Method: as §1

S. agalactiae ATCC 27591 = assay: microbe, parasite or virus in culture; assay type: cell-based
Method: as §1

[1] = test system: S. epidermidis ATCC 12228; assay: microbe, parasite or virus in culture; assay type: cell-based
Method: as §1

P. aeruginosa PAO1 = assay: microbe, parasite or virus in culture; assay type: cell-based
Method: as §1

B. megaterium BM11 = assay: microbe, parasite or virus in culture; assay type: cell-based
Method: as §1

P. aeruginosa ATCC 27853 = assay: microbe, parasite or virus in culture; assay type: cell-based
Method: as §1

E. faecalis ATCC 29212 = assay: microbe, parasite or virus in culture; assay type: cell-based
Method: as §1

E. coli D21 = assay: microbe, parasite or virus in culture; assay type: cell-based
Method: as §1

circular dichroism = conditions: water; pH ns; 25 °C; 150 uM
[2] = assay type: cell-based, human; conditions: human; for viability at 2 h, 3.12 µM / viability at 2 h, 6.25 µM / viability at 2 h, 12.5 µM / viability at 2 h, 25 µM / viability at 2 h, 50 µM / viability at 2 h, 100 µM / viability at 24 h, 3.12 µM / viability at 24 h, 6.25 µM / viability at 24 h, 12.5 µM / viability at 24 h, 25 µM / viability at 24 h, 50 µM / viability at 24 h, 100 µM: Cell viability (%)
Method: (§2) For the evaluation of peptides’ cytotoxicity, the human immortalized keratinocytes (HaCaT cells), purchased from AddexBio (San Diego, CA, USA), and BEAS-2B were used. HaCaT cells were cultured in Dulbecco’s modified Eagle’s medium supplemented with 4 mM glutamine (DMEM), 10% heat-inactivated fetal bovine serum (FBS), and 0.1 mg/mL of penicillin and streptomycin, at 37 °C and 5% CO2. BEAS-2B cells were cultured in RPMI, supplemented with 2 mM glutamine (DMEM), 10% heat-inactivated fetal bovine serum (FBS), 1 mM sodium pyruvate, and 0.1 mg/mL of penicillin and streptomycin, at 37 °C and 5% CO2. Cytotoxicity was tested in vitro using a colorimetric assay that relies on the intracellular reduction of the yellow 3-(4,5-dimethylthiazol-2-yl)-2,5-diphenyltetrazolium bromide salt (MTT) by mitochondrial dehydrogenases of metabolically active cells in formazan crystals (purple). About 4 × 10^4 HaCaT and BEAS-2B cells, suspended in DMEM supplemented with 2% FBS, were plated in triplicate wells of a 96-well microtiter plate. The plate was incubated overnight at 37 °C and 5% CO2. Then, the cells were treated with different concentrations of the peptide (from 100 to 3.12 μM) in a fresh serum-free medium for 2 h and for a longer time (24 h). Following peptide treatment, the medium was removed, and MTT (0.5 mg/mL) solution in Hank’s buffer (136 mM NaCl, 4.2 mM Na2HPO4, 4.4 mM KH2PO4, 5.4 mM KCl, 4.1 mM NaHCO3, pH 7.2, supplemented with 20 mM D-glucose) was added to each well of the plate, that was then incubated for 4 h at 37 °C and 5% CO2. The purple formazan crystals were dissolved using acidified 2-propanol and a microplate reader (Infinite M200; Tecan, Salzburg, Austria) was used to measure the absorbance of each well at 570 nm. The percentage of cell viability was calculated compared to the control, which consisted of cells without any peptide treatment (corresponding to 100% viability) and all data represent the mean of three independent experiments ± SEM.

[3] = test system: human keratinocytes (HaCaT cells); assay type: cell-based
Method: as §2

| Compound | MIC (E. coli ATCC 25922; ATCC 25922) [µM] | MIC (A. baumannii ATCC 19606; ATCC 19606) [µM] | MIC (S. aureus ATCC 25923; ATCC 25923) [µM] | MIC (S. agalactiae ATCC 27591; ATCC 27591) [µM] | MIC ([1]; ATCC 12228) [µM] | MIC (B. megaterium BM11; BM11) [µM] | MIC (P. aeruginosa ATCC 27853; ATCC 27853) [µM] | MIC (E. faecalis ATCC 29212; ATCC 29212) [µM] | MIC (E. coli D21; D21) [µM] | helicity (circular dichroism) [%] | CC50 at 24 h [2] [µM] | viability at 2 h, 3.12 µM [2] [%] | viability at 2 h, 6.25 µM [2] [%] | viability at 2 h, 12.5 µM [2] [%] | viability at 2 h, 25 µM [2] [%] | viability at 2 h, 50 µM [2] [%] | viability at 2 h, 100 µM [2] [%] | viability at 24 h, 3.12 µM [2] [%] | viability at 24 h, 6.25 µM [2] [%] | viability at 24 h, 12.5 µM [2] [%] | further results |
| --- | --- | --- | --- | --- | --- | --- | --- | --- | --- | --- | --- | --- | --- | --- | --- | --- | --- | --- | --- | --- | --- |
| O=C(O)c1cn(C2CC2)c2cc(N3CCNCC3)c(F)cc2c1=O [Ciprofloxacin, reference compound] | – | – | – | – | – | – | – | – | – | – | – | – | – | – | – | – | – | – | – | – | MIC (E. coli ATCC 25922; Escherichia coli, ATCC25922, E. coli ATCC 25922, antibiotic control, read-out: MIC): 0.01 µg/mL; MIC (A. baumannii ATCC 19606; Acinetobacter baumannii, ATCC19606, A. baumannii ATCC 19606, antibiotic control, read-out: MIC): 1 µg/mL; MIC (S. aureus ATCC 25923; Staphylococcus aureus, ATCC25923, S. aureus ATCC 25923, antibiotic control, read-out: MIC): 0.5 µg/mL; MIC (S. agalactiae ATCC 27591; Streptococcus agalactiae, ATCC27591, S. agalactiae ATCC 27591, antibiotic control, read-out: MIC): 0.5 µg/mL; MIC ([1]; Staphylococcus epidermidis, ATCC12228, S. epidermidis ATCC 12228, antibiotic control, read-out: MIC): 0.25 µg/mL; MIC (P. aeruginosa PAO1; Pseudomonas aeruginosa, P. aeruginosa PAO1, antibiotic control, read-out: MIC): 0.12 µg/mL; MIC (B. megaterium BM11; Priestia megaterium, B. megaterium BM11, antibiotic control, read-out: MIC): 0.12 µg/mL; MIC (P. aeruginosa ATCC 27853; Pseudomonas aeruginosa, ATCC27853, P. aeruginosa ATCC 27853, antibiotic control, read-out: MIC): 0.5 µg/mL; MIC (E. faecalis ATCC 29212; Enterococcus faecalis, ATCC29212, E. faecalis ATCC 29212, antibiotic control, read-out: MIC): 0.5 µg/mL; MIC (E. coli D21; Escherichia coli, E. coli D21, antibiotic control, read-out: MIC): 0.01 µg/mL |
| CC[C@H](C)[C@H](NC(=O)[C@H](CCCNC(=N)N)NC(=O)[C@H]1CCC(=O)NCCCC[C@H](NC(=O)[C@H](Cc2ccccc2)NC(=O)[C@H](Cc2c[nH]c3ccccc23)NC(=O)[C@@H]2CCCN2C(=O)[C@@H](NC(=O)[C@H](Cc2ccccc2)NC(=N)N)C(C)C)C(=O)N[C@@H](CCCCN)C(=O)N[C@@H](Cc2ccccc2)C(=O)N[C@H](CC(C)C)C(=O)N1)C(=O)N[C@@H](CC(C)C)C(N)=O [Peptide 3, guanidino-FVPWF[KKFle]RIL] (X1-VPWFKKF[dL][dE]RIL-NH2; lactam 5-9) | 6.25 | 3.12 | 6.25 | 3.12 | 3.12 | 0.78 | 100 | 25 | 6.25 | 1 | 38.6 | 126 | 137 | 125 | 104 | 52 | 5 | 93 ± 9 | 105 ± 2 | 107 ± 8 | MIC (P. aeruginosa PAO1; PAO1): 50 µM; viability at 24 h, 25 µM [2]: 86 ± 5%; viability at 24 h, 50 µM [2]: 29 ± 2%; viability at 24 h, 100 µM [2]: 4 ± 1% |
| CC[C@H](C)[C@H](NC(=O)[C@H](CCCNC(=N)N)NC(=O)[C@H]1CCC(=O)NCCCC[C@H](NC(=O)[C@H](Cc2ccccc2)NC(=O)[C@H](Cc2c[nH]c3ccccc23)NC(=O)[C@@H]2CCCN2C(=O)[C@@H](NC(=O)[C@H](Cc2ccccc2)NC(=O)CCNC(=N)N)C(C)C)C(=O)N[C@@H](CCCCN)C(=O)N[C@@H](Cc2ccccc2)C(=O)N[C@H](CC(C)C)C(=O)N1)C(=O)N[C@@H](CC(C)C)C(N)=O [Peptide 4, guanidino-βAla-FVPWF[KKFle]RIL] ({Propanoyl(3-guanidino)}-FVPWFKKF[dL][dE]RIL-NH2; lactam 6-10) | 3.12 | 3.12 | 3.12 | 1.56 | 1.56 | 0.78 | 25 | 6.25 | 6.25 | 12 | 19.4 | 100 | 100 | 100 | 47 | 7 | 8 | 98 ± 1 | 93 ± 2 | 88 ± 4 | MIC (P. aeruginosa PAO1; PAO1): 25 µM; viability at 24 h, 25 µM [2]: 21 ± 3%; viability at 24 h, 50 µM [2]: 0%; viability at 24 h, 100 µM [2]: 0% |
| CC[C@H](C)[C@H](NC(=O)[C@H](CCCNC(=N)N)NC(=O)[C@@H]1CCCNC(=N)NCCC[C@H](NC(=O)[C@H](Cc2ccccc2)NC(=O)[C@H](Cc2c[nH]c3ccccc23)NC(=O)[C@@H]2CCCN2C(=O)[C@@H](NC(=O)[C@@H](N)Cc2ccccc2)C(C)C)C(=O)N[C@@H](CCCCN)C(=O)N[C@@H](Cc2ccccc2)C(=O)N[C@H](CC(C)C)C(=O)N1)C(=O)N[C@@H](CC(C)C)C(N)=O [Peptide 13, FVPWF{OrnKFlOrn}RIL] | 6.25 | 1.56 | 6.25 | 1.56 | 1.56 | 0.39 | 50 | 6.25 | 6.25 | 10 | 19.7 | 107 | 104 | 76 | 31 | 7 | 2 | 103 ± 2 | 103 ± 3 | 97 ± 2 | viability at 24 h, 25 µM [2]: 22 ± 2%; viability at 24 h, 50 µM [2]: 2 ± 1%; viability at 24 h, 100 µM [2]: 3 ± 1%; cytotoxicity (in words) [3]: Low cytotoxicity (up to 25 μM) |
